Source: the kinase profiling compilation of Christmann-Franck et al. (2016)
Blank lines part the entries; values can stand above or below the compound they belong to.

Columns and labels:
Experiment in all cases: radiometric filter-binding kinase assay
ROCK2 (rat) = details: accession and sequence are those of the human protein
MELK (human) = MELK (human) (UniProt Q14680)
IKBKE (human) = IKBKE (human) (UniProt Q14164)
EPHA2 (human) = EPHA2 (human) (UniProt P29317)
DYRK2 (human) = DYRK2 (human) (UniProt Q92630)
CHEK2 (human) = CHEK2 (human) (UniProt O96017)
TTK (human) = TTK (human) (UniProt P33981)
CLK2 (human) = CLK2 (human) (UniProt P49760)
PRKCA (human) = PRKCA (human) (UniProt P17252)
STK3 (human) = STK3 (human) (UniProt Q13188)
NEK2 (human) = NEK2 (human) (UniProt P51955)
Chain of NEK2 (human) (P51955 whole entry, looked up): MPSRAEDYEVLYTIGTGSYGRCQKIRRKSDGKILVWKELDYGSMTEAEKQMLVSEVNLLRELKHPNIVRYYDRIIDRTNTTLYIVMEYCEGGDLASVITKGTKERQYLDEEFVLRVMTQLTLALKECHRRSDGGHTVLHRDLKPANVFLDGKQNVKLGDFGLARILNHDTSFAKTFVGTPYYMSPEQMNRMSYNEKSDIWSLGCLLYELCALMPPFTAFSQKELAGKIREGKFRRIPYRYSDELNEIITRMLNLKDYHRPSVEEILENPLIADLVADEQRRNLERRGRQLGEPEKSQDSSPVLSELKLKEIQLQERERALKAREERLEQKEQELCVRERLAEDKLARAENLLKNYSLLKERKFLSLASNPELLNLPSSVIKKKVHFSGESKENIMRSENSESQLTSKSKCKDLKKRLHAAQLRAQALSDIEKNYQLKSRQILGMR

MAPK12 (human) = MAPK12 (human) (UniProt P53778)
HIPK2 (human) = HIPK2 (human) (UniProt Q9H2X6)
MARK1 (human) = MARK1 (human) (UniProt Q9P0L2)
PIM1 (human) = PIM1 (human) (UniProt P11309)
FLT1 (human) = FLT1 (human) (UniProt P17948)
MYLK (human) = MYLK (human) (UniProt Q15746)
EPHB1 (human) = EPHB1 (human) (UniProt P54762); details: compound 0.1 µM
[1] = test system: SGK1 (human), O00141 [S422D]
Chain of SGK1 (human), O00141 [S422D] (O00141 whole entry S422D, looked up): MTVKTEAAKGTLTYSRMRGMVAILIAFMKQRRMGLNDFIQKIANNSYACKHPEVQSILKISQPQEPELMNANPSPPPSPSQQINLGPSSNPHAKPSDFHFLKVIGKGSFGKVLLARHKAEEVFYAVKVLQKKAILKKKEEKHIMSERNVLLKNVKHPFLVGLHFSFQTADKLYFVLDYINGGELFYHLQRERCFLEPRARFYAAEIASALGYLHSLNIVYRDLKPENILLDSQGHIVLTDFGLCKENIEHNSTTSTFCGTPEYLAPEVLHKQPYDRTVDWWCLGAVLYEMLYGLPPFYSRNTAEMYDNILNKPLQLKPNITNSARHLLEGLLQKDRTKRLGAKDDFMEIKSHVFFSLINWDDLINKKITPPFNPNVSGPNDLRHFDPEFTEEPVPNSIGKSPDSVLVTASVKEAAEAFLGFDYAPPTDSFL

EPHB4 (human) = EPHB4 (human) (UniProt P54760)
Chain of EPHB4 (human) (P54760 whole entry, looked up): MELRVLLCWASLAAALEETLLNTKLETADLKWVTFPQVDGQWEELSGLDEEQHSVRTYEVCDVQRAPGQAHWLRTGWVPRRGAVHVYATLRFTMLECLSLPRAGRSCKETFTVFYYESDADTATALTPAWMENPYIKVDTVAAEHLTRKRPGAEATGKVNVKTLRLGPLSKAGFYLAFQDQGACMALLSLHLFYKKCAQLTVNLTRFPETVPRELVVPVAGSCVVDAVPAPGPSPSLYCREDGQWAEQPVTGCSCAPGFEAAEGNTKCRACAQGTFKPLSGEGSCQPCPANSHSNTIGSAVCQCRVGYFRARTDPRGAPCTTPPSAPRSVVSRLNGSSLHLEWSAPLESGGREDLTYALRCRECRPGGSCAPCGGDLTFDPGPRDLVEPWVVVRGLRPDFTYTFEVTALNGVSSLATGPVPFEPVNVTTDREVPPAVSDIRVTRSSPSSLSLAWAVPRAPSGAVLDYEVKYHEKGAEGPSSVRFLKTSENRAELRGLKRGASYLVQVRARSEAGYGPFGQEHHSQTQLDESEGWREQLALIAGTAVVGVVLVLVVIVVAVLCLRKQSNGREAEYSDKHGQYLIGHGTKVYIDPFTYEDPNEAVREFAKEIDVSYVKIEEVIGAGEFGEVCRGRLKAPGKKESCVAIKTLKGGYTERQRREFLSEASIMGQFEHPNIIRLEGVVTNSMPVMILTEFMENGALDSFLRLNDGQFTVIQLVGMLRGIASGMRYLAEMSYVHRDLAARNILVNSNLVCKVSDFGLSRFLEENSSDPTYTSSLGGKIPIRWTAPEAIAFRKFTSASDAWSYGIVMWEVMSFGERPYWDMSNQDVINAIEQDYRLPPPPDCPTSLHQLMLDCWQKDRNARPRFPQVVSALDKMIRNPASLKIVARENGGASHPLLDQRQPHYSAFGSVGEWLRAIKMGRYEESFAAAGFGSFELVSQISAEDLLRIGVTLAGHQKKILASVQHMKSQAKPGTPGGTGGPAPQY

EPHB2 (human) = EPHB2 (human) (UniProt P29323)
DAPK1 (human) = DAPK1 (human) (UniProt P53355)
MARK2 (human) = MARK2 (human) (UniProt Q7KZI7)
MAPK14 (human) = MAPK14 (human) (UniProt Q16539)
PKN2 (human) = PKN2 (human) (UniProt Q16513)
PIM3 (human) = PIM3 (human) (UniProt Q86V86)
IRAK4 (human) = IRAK4 (human) (UniProt Q9NWZ3)
Chain of IRAK4 (human) (Q9NWZ3 whole entry, looked up): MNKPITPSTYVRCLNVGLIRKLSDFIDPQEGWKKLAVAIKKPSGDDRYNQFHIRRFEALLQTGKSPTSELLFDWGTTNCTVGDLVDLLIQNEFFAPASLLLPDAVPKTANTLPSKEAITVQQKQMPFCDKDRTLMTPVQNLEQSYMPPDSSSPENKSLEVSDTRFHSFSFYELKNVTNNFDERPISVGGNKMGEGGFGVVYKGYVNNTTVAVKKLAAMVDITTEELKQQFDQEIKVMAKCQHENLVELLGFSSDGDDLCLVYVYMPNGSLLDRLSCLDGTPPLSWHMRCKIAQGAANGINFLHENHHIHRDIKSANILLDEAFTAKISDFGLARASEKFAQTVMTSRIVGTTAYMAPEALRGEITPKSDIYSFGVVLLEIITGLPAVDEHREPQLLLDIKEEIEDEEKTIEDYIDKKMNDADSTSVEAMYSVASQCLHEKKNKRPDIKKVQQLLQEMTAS

[2] = test system: RPS6KB1 (human), P23443 [T412E]
Chain of RPS6KB1 (human), P23443 [T412E] (P23443 whole entry T412E, looked up): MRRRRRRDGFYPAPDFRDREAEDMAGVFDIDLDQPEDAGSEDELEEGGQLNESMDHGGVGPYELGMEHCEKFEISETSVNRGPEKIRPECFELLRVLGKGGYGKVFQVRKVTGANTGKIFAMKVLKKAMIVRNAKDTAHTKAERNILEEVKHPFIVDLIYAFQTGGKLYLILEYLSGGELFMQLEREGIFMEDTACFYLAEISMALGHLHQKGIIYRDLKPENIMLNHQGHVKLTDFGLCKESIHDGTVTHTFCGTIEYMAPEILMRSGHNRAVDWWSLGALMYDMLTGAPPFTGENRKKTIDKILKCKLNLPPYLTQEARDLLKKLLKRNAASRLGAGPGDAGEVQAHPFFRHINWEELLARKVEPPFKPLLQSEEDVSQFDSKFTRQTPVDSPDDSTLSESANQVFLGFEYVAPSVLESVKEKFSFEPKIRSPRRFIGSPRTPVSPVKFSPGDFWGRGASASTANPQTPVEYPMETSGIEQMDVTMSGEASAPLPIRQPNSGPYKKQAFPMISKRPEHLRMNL

MAP3K7 TAB1 (human) = MAP3K7 TAB1 (human) (UniProt Q15750+O43318)
DYRK3 (human) = DYRK3 (human) (UniProt O43781)
Chain of DYRK3 (human) (O43781 whole entry, looked up): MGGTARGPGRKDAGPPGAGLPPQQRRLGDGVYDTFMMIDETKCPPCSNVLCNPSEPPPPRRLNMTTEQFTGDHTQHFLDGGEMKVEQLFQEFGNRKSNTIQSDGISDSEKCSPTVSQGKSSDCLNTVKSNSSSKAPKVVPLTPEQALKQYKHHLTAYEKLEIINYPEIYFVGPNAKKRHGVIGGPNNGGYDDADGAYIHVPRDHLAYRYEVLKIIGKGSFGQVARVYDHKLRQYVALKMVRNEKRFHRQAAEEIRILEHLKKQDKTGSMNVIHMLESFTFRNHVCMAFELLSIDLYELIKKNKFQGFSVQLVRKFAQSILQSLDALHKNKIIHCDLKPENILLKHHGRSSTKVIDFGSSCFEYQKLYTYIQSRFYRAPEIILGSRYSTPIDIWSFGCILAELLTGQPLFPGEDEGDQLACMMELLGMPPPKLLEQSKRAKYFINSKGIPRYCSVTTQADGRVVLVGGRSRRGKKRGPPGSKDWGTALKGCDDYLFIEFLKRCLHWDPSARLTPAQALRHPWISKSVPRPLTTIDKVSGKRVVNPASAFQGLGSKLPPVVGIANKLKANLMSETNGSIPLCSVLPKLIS

MAPKAPK5 (human) = MAPKAPK5 (human) (UniProt Q8IW41)
Chain of MAPKAPK5 (human) (Q8IW41 whole entry, looked up): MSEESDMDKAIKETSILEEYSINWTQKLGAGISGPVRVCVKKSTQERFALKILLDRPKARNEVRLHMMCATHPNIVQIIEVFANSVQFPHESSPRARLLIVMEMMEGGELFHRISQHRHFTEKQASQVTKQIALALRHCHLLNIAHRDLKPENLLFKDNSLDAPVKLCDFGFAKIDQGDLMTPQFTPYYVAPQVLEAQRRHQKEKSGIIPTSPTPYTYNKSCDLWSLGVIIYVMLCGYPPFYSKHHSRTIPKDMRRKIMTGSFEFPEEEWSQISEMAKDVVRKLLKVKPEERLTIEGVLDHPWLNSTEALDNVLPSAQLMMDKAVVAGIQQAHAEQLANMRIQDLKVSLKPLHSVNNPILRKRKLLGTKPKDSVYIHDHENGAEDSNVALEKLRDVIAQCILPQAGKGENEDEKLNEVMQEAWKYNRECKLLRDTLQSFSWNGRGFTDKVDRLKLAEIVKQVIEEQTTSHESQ

MAPKAPK2 (human) = MAPKAPK2 (human) (UniProt P49137)
RPS6KA1 KD1 KD2 (human) = RPS6KA1 KD1 KD2 (human) (UniProt Q15418)
GCK (human) = GCK (human) (UniProt Q12851)

- residual activity (ROCK2 (rat); compound 0.1 µM): 111%
- residual activity (MELK (human); compound 0.1 µM): 106%
- residual activity (IKBKE (human); compound 0.1 µM): 88%
- residual activity (EPHA2 (human); compound 0.1 µM): 55%
- residual activity (DYRK2 (human); compound 0.1 µM): 109%
- residual activity (CHEK2 (human); compound 0.1 µM): 112%
- residual activity (TTK (human); compound 0.1 µM): 112%
- residual activity (CLK2 (human); compound 0.1 µM): 111%
- residual activity (PRKCA (human); compound 0.1 µM): 100%
- residual activity (STK3 (human); compound 0.1 µM): 102%
- residual activity (NEK2 (human); compound 0.1 µM): 94%
- residual activity (MAPK12 (human); compound 0.1 µM): 94%
- residual activity (HIPK2 (human); compound 0.1 µM): 80%
- residual activity (MARK1 (human); compound 0.1 µM): 101%
- residual activity (PIM1 (human); compound 0.1 µM): 116%
- residual activity (FLT1 (human); compound 0.1 µM): 116%
- residual activity (MYLK (human); compound 0.1 µM): 97%
- residual activity (EPHB1 (human)): 81%
- residual activity ([1]; compound 0.1 µM): 112%
- residual activity (EPHB4 (human); compound 0.1 µM): 76%
- residual activity (EPHB2 (human); compound 0.1 µM): 66%
- residual activity (DAPK1 (human); compound 0.1 µM): 82%
- residual activity (MARK2 (human); compound 0.1 µM): 90%
- residual activity (MAPK14 (human); compound 0.1 µM): 108%
- residual activity (PKN2 (human); compound 0.1 µM): 103%
- residual activity (PIM3 (human); compound 0.1 µM): 111%
- residual activity (IRAK4 (human); compound 0.1 µM): 100%
- residual activity ([2]; compound 0.1 µM): 93%
- residual activity (MAP3K7 TAB1 (human); compound 0.1 µM): 115%
- residual activity (DYRK3 (human); compound 0.1 µM): 114%
Structure (SMILES): CN1CCN(CCOc2cc(OC3CCOCC3)c3c(Nc4c(Cl)ccc5c4OCO5)ncnc3c2)CC1

- residual activity (ROCK2 (rat); compound 0.1 µM): 75%
- residual activity (ROCK2 (rat); compound 1.0 µM): 31%
- residual activity (ROCK2 (rat); compound 10.0 µM): 7%
- residual activity (MELK (human); compound 0.1 µM): 99%
- residual activity (MELK (human); compound 1.0 µM): 57%
- residual activity (MELK (human); compound 10.0 µM): 15%
- residual activity (MAPKAPK5 (human); compound 0.1 µM): 87%
- residual activity (MAPKAPK5 (human); compound 1.0 µM): 42%
- residual activity (MAPKAPK5 (human); compound 10.0 µM): 15%
- residual activity (IKBKE (human); compound 0.1 µM): 109%
- residual activity (IKBKE (human); compound 1.0 µM): 86%
- residual activity (IKBKE (human); compound 10.0 µM): 31%
- residual activity (EPHA2 (human); compound 0.1 µM): 87%
- residual activity (EPHA2 (human); compound 1.0 µM): 78%
- residual activity (EPHA2 (human); compound 10.0 µM): 86%
- residual activity (DYRK2 (human); compound 0.1 µM): 101%
- residual activity (DYRK2 (human); compound 1.0 µM): 77%
- residual activity (DYRK2 (human); compound 10.0 µM): 88%
- residual activity (CHEK2 (human); compound 0.1 µM): 104%
- residual activity (CHEK2 (human); compound 1.0 µM): 37%
- residual activity (CHEK2 (human); compound 10.0 µM): 18%
- residual activity (TTK (human); compound 0.1 µM): 87%
- residual activity (TTK (human); compound 1.0 µM): 55%
- residual activity (TTK (human); compound 10.0 µM): 24%
- residual activity (CLK2 (human); compound 0.1 µM): 50%
- residual activity (CLK2 (human); compound 1.0 µM): 10%
- residual activity (CLK2 (human); compound 10.0 µM): 2%
- residual activity (PRKCA (human); compound 0.1 µM): 94%
- residual activity (PRKCA (human); compound 1.0 µM): 64%
- residual activity (PRKCA (human); compound 10.0 µM): 18%
- residual activity (STK3 (human); compound 0.1 µM): 108%
- residual activity (STK3 (human); compound 1.0 µM): 59%
- residual activity (STK3 (human); compound 10.0 µM): 21%
- residual activity (MAPKAPK2 (human); compound 0.1 µM): 102%
- residual activity (MAPKAPK2 (human); compound 1.0 µM): 101%
- residual activity (MAPKAPK2 (human); compound 10.0 µM): 94%
- residual activity (NEK2 (human); compound 0.1 µM): 88%
- residual activity (NEK2 (human); compound 1.0 µM): 74%
- residual activity (NEK2 (human); compound 10.0 µM): 44%
- residual activity (MAPK12 (human); compound 0.1 µM): 93%
- residual activity (MAPK12 (human); compound 1.0 µM): 76%
- residual activity (MAPK12 (human); compound 10.0 µM): 38%
- residual activity (HIPK2 (human); compound 0.1 µM): 64%
- residual activity (HIPK2 (human); compound 1.0 µM): 22%
- residual activity (HIPK2 (human); compound 10.0 µM): 9%
- residual activity (MARK1 (human); compound 0.1 µM): 78%
- residual activity (MARK1 (human); compound 1.0 µM): 66%
- residual activity (MARK1 (human); compound 10.0 µM): 37%
- residual activity (PIM1 (human); compound 0.1 µM): 112%
- residual activity (PIM1 (human); compound 1.0 µM): 89%
- residual activity (PIM1 (human); compound 10.0 µM): 41%
- residual activity (FLT1 (human); compound 0.1 µM): 100%
- residual activity (FLT1 (human); compound 1.0 µM): 55%
- residual activity (FLT1 (human); compound 10.0 µM): 22%
- residual activity (MYLK (human); compound 0.1 µM): 98%
- residual activity (MYLK (human); compound 1.0 µM): 53%
- residual activity (MYLK (human); compound 10.0 µM): 17%
- residual activity ([1]; compound 0.1 µM): 92%
- residual activity ([1]; compound 1.0 µM): 58%
- residual activity ([1]; compound 10.0 µM): 46%
- residual activity (EPHB4 (human); compound 0.1 µM): 107%
- residual activity (EPHB4 (human); compound 1.0 µM): 76%
- residual activity (EPHB4 (human); compound 10.0 µM): 19%
- residual activity (EPHB2 (human); compound 0.1 µM): 90%
- residual activity (EPHB2 (human); compound 1.0 µM): 74%
- residual activity (EPHB2 (human); compound 10.0 µM): 24%
- residual activity (DAPK1 (human); compound 0.1 µM): 76%
- residual activity (DAPK1 (human); compound 1.0 µM): 40%
- residual activity (DAPK1 (human); compound 10.0 µM): 10%
- residual activity (MARK2 (human); compound 0.1 µM): 103%
- residual activity (MARK2 (human); compound 1.0 µM): 65%
- residual activity (MARK2 (human); compound 10.0 µM): 28%
- residual activity (MAPK14 (human); compound 0.1 µM): 110%
- residual activity (MAPK14 (human); compound 1.0 µM): 101%
- residual activity (MAPK14 (human); compound 10.0 µM): 59%
- residual activity (RPS6KA1 KD1 KD2 (human); compound 0.1 µM): 92%
- residual activity (RPS6KA1 KD1 KD2 (human); compound 1.0 µM): 65%
- residual activity (RPS6KA1 KD1 KD2 (human); compound 10.0 µM): 31%
- residual activity (PKN2 (human); compound 0.1 µM): 100%
- residual activity (PKN2 (human); compound 1.0 µM): 76%
- residual activity (PKN2 (human); compound 10.0 µM): 29%
- residual activity (PIM3 (human); compound 0.1 µM): 101%
- residual activity (PIM3 (human); compound 1.0 µM): 88%
- residual activity (PIM3 (human); compound 10.0 µM): 42%
- residual activity (GCK (human); compound 0.1 µM): 7%
- residual activity (GCK (human); compound 1.0 µM): 6%
- residual activity (GCK (human); compound 10.0 µM): 5%
- residual activity (IRAK4 (human); compound 0.1 µM): 127%
- residual activity (IRAK4 (human); compound 1.0 µM): 92%
- residual activity (IRAK4 (human); compound 10.0 µM): 44%
- residual activity ([2]; compound 0.1 µM): 112%
- residual activity ([2]; compound 1.0 µM): 90%
- residual activity ([2]; compound 10.0 µM): 39%
- residual activity (MAP3K7 TAB1 (human); compound 1.0 µM): 8%
- residual activity (MAP3K7 TAB1 (human); compound 10.0 µM): 2%
- residual activity (DYRK3 (human); compound 0.1 µM): 97%
- residual activity (DYRK3 (human); compound 1.0 µM): 76%
- residual activity (DYRK3 (human); compound 10.0 µM): 59%
Structure (SMILES): NC(=O)c1cc2c(-c3cccc(-c4ccccc4)c3)cnc(N)c2s1
